The subject of series [1] is HCV-1b replicon sub-cells. Put plainly: Cytotoxicity in HCV-1b replicon cells (cell growth fluorescent titration). The conditions noted are these: HCV GT1b replicon cells, 3 days. It counts as cell-based. On the procedure:
(§1) A hepatitis C virus (HCV) genotype (GT) 1b stable transfection replicon cell line system was used to determine the inhibitory activity of the compounds to the HCV GT1b replicons. In this experiment, the compound 06a (GS-7977) was used as a control compound to monitor the experimental quality.
(§2) [drawing 4] 2. Compound dilution: 20 mM mother liquor was prepared by using 100% DMSO, and the compound DMSO mother liquor was diluted and added to a 96-well experiment plate. The final concentration of the DMSO was 0.5%. In in-vitro anti-HCV activity experiments and cytotoxicity experiments, all compounds had the initial concentration of 20 microns, and were diluted by 5 times of dilution. The final concentration of the DMSO of 6 concentrations were 0.5%. 3. Cell treatment: HCV-1b replicon sub-cells were added to the above 96-well cell plate (8,000 cells/well), and then placed into an incubator of 37 DEG C. and 5% CO2 for culturing for 3 days. 4. Cell activity detection: a cell growth fluorescent titration detection reagent was added to each well; after the cells were cultured for 1 hour in the incubator of 37 DEG C. and 5% CO2, a spectrophotometer detection system Envision was used to detect a Fluorescence signal value. The original data, i.e, relative fluorescence units (RFUs), was used for the calculation of the cell toxicity of the compounds. 5. Anti-HCV replicon activity detection: a luciferase light-emitting substrate bright-GLO was added to each well, and a chemiluminescence detection system Envision was used for detecting a Luminescence signal value in 5 minutes. The original data, i.e., relative light units (RLUs), was used for the calculation of the inhibitory activity of the compounds. 6. Data processing: the RFUs obtained in step 1.3 were processed into a cell activity percentage by using the following formula: […]
(§3) The cell activity percentage and the inhibition percentage were respectively imported into GraphPad Prism software for data processing to obtain curves corresponding to the compounds and their values of cytotoxicity (CC50) and inhibitory activity (ECD50) to the HCV replicons.
In general terms: In antiviral work, replicon cells carry a viral genome segment that copies itself.

In another series the test system is HCV GT1b replicons. Put plainly: Anti-HCV replicon activity, HCV GT1b stable transfection replicon cell line (luciferase). It counts as cell-based, hepatitis C virus (HCV) genotype (GT) 1b. On the procedure: as §1, §2
The RLUs obtained in step 1.4 were processed into a inhibition percentage by using the following formula:
[formula] *CPD: signal values of compound wells HPE (high percent effect): 100% effective action control well signal value, with only DMEM culture solution in the wells; The ZPE (zero percent effect): noneffective control well signal value, with 0.5% DMSO to replace the compound.
as §3

The nature of series [2]: Rat in-vivo metabolism and tissue distribution: metabolite TSL1100 in liver after intragastric administration. Further details: species or system SD rats. The conditions noted are these: rat PO 50 mg/kg. The procedure:
18 SD rats (male, 6-9 weeks old, purchased from Vital River Animal center) were divided into 6 groups randomly, 3 rats in each group, fasted for 12 hours first before administration, freely fed with water during the fasting period. After the administration is carried out for 4 hours, the fasting was ended. 50 mg compound was precisely weighed on a balance, and 95% (0.5% of cd))/5% solutol aqueous solution was added and uniformly mixed, and subjected to ultrasonic treatment for later use. The drug delivery dose was 50 mg/kg; the drug delivery concentration was […]; and the drug delivery volume was […].
The sample collection scheme: taking blood and liver tissues after carrying out intragastric administration on rats for 1 h, 2 h, 3 h, 6 h, 12 h and 24 h.
The liver tissue sample treatment method: taking a rat tissue sample in a plastic EP tube, and adding 5 times (w:v) 1.75 mL MeOH and 5 μL 50% KOH aqueous solution together with 0.75 mL 268 mM EDTA solution to prepare a solution, uniformly mixing and taking 60 μL sample, adding a 240 μL internal standard solution for mixing, carrying out vortex oscillation for 2 minutes, and centrifuging for 10 minutes (13000 rpm and 4 DEG C.), taking 30 μL of supernate, adding 30 μL of water, carrying out vortex mixing, centrifuging at 4 DEG C., and then taking 5 μL supernate for […] analysis.
LC-MS/MS-O (API 4000) liquid mass spectrometer and chromatographic column are adopted: ACQUITY UPLC BEH C18 130 Å 1.7 μm 2.1×50 mm the composition com: and tomitamide was adopted as an internal standard compound, gradient elution analysis is carried out after the sample is fed into the sample, and the internal standard is recorded respectively, the retention time and the peak area of the to-be-tested compound and the metabolite TSL 1100, the software phoenix winnonlin 6.2. The method is analyzed by an srms quantitative detection method.

For series [3], the target named is T1, herg potassium ion channel (Homo sapiens, UniProt Q12809).
T1 construct: host or cells: CHO cells stably expressing hERG
In words: In vitro cardiotoxicity, hERG manual patch clamp in CHO cells. It counts as cell-based.
Method: The experiment adopted CHO cells which can stably express the herg potassium ion channel from AVivaBiosciences company, wherein the cells were incubated in a constant-humidity environment at the temperature of 37 DEG C. with 5% CO2.
The compounds were tested on a Multiclamp patch-clamp amplifier at room temperature; the output signals were digitized by using a DLigital 1440 A/D-D/A board; the PCLAMP 10 software was used for recording and controlling. The minimum sealing resistance was set to 500 MOhms and the minimum specific hERG current was set to 0.4 nA for quality control.
Clampfit (V10.2, Molecular Devices), Excel 2003 and GraphPad Prism 5.0 were used for data analysis.

The nature of series [4]: Cytotoxicity in HCV-1b replicon cells (cell growth fluorescent titration). The class given is cell-based. The conditions noted are these: HCV genotype 1b stably transfected replicon cells, HCV GT1b replicon cells. On the procedure: as §1, §2, §3
The mark [5] stands for this setting: HCV GT1b replicons, 3 days, maximum test concentration 20 μM, read-out: EC50 anti-HCV replicon activity.

Results on three compounds are retold here after patent US10745434B2, “Uridine phosphoramide prodrug, preparation method therefor, and medicinal uses thereof” (priority 2016, dated 2020).

Where two headings read alike, the source gives them in different places. Some results are limits rather than exact numbers.

T1 sequence (Q12809 whole entry): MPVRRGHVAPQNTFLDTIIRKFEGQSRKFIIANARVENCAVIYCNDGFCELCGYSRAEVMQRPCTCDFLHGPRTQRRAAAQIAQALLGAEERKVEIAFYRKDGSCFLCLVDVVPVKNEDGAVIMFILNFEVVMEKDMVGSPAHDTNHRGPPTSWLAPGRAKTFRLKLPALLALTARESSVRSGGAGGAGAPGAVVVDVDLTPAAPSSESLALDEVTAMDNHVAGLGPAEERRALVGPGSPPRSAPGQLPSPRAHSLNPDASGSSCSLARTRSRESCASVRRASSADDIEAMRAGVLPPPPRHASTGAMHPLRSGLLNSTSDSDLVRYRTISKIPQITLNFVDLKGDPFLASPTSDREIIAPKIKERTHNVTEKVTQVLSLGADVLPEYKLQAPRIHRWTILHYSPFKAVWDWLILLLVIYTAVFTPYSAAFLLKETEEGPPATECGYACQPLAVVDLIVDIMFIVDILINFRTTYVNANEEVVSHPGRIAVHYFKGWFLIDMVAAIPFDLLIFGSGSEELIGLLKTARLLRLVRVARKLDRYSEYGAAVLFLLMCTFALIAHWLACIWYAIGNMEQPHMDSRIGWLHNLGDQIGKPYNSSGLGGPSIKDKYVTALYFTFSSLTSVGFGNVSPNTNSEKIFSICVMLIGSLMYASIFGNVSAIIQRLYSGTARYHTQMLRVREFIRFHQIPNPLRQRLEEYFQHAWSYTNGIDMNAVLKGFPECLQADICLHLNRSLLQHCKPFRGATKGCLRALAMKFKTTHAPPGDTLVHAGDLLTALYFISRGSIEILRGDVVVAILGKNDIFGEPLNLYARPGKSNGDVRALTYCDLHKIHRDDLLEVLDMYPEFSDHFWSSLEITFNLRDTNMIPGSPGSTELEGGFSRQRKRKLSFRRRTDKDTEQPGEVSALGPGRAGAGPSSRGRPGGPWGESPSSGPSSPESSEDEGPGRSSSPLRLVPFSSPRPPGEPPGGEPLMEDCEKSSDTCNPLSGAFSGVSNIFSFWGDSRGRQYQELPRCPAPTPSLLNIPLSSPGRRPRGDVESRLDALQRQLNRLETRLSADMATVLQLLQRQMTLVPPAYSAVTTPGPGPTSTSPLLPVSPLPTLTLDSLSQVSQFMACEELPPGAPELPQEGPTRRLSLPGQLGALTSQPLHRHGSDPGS

As usually defined, the CC50 is the concentration that lowers cell viability or growth by half. A higher CC50 goes with lower toxicity to the cells. With `CC(C)OC(=O)[C@H](C)NP(=O)(OCc1ccccc1)OC[C@H]1O[C@@H](n2ccc(=O)[nH]c2=O)[C@](C)(F)[C@@H]1O` (single isomer, unassigned) [Compound 01a], in series [1], the CC50 was > 20 µM. Further, the EC50 with HCV GT1b replicons (setting [5]) stood at 0.301 µM. Moreover, in series [2], the AUCExtra worked out at 4.74%, the AUMCExtra is given as 18.9% and the Tlast is given as 24.0 h.

For `CC(C)OC(=O)[C@H](C)NP(=O)(OCc1ccccc1)OC[C@H]1O[C@@H](n2ccc(=O)[nH]c2=O)[C@](C)(F)[C@@H]1O` (single isomer, unassigned) [Compound 01b], the CC50 in series [1] was > 20 µM. In the series on HCV GT1b replicons (setting [5]), the EC50 amounted to 9.15 µM. For the same compound, in series [2], the AUCExtra is listed as 6.61%, the AUMCExtra is 19.8% and the Tlast was 12.0 h.

The IC50 is the concentration that inhibits the measured activity by half. Higher therefore signals a need for much substance. `CC(C)OC(=O)[C@H](C)N[P@](=O)(OC[C@H]1O[C@@H](n2ccc(=O)[nH]c2=O)[C@](C)(F)[C@@H]1O)Oc1ccccc1` [Patent compound 06a in 2010]: the IC50 in series [3] was > 10 µM. Also, the CC50 at 3 days in series [4] was > 3 µM. The EC50 in the series on HCV GT1b replicons (Hepatitis C virus, GT1B, 72 h, read-out: EC50 anti-HCV replicon activity, HCV GT1b replicons, 3 days, maximum test concentration 20 μM) stood at 0.719 µM.
